Source: ChEMBL document CHEMBL4373747 (ACS Med Chem Lett, 2020)

Key:
[1] = biological target: Histone deacetylase 3 (Homo sapiens, UniProt O15379); test: Inhibition of recombinant full length human HDAC3 expressed in baculovirus infected Sf9 cells using FAM-RHKK-Ac as substrate incubated for 3 hrs by electrophoretic mobility shift assay
[2] = Stability in ICR/CD1 mouse hepatocytes assessed as half life at 1 uM measured upto 120 mins by LCMS analysis; assay type: ADME, cell-based, Hepatocyte; conditions: 2 h
[3] = biological target: T1, Histone deacetylase 11 (Homo sapiens, UniProt Q96DB2); test: Inhibition of recombinant full length human HDAC11 expressed in baculovirus infected Sf9 cells using FAM-RHKK-TFAc as substrate incubated for 17 hrs by electrophoretic mobility shift assay
T1 sequence (Q96DB2 whole entry): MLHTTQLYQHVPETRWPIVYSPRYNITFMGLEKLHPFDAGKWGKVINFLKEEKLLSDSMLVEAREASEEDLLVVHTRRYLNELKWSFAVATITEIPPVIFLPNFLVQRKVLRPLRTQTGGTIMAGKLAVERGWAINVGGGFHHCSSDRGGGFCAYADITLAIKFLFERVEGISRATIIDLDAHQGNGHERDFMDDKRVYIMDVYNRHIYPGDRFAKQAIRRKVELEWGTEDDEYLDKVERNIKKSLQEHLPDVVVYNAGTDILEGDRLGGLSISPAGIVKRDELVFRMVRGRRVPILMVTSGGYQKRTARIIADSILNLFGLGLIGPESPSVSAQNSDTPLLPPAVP

[4] = system: MV4-11; test: Induction of apoptosis in human MV4-11 cells assessed as early apoptotic cells at 0.5 uM incubated for 18 hrs by annexin V FITC and PI based flow cytometry (reference value: 19.46 to 22.17 %); assay type: functional
[5] = biological target: T2, Histone deacetylase 8 (Homo sapiens, UniProt Q9BY41); test: Inhibition of recombinant full length human HDAC8 expressed in baculovirus infected Sf9 cells using FAM-RHKK-TFAc as substrate incubated for 3 hrs by electrophoretic mobility shift assay
T2 sequence (Q9BY41 whole entry): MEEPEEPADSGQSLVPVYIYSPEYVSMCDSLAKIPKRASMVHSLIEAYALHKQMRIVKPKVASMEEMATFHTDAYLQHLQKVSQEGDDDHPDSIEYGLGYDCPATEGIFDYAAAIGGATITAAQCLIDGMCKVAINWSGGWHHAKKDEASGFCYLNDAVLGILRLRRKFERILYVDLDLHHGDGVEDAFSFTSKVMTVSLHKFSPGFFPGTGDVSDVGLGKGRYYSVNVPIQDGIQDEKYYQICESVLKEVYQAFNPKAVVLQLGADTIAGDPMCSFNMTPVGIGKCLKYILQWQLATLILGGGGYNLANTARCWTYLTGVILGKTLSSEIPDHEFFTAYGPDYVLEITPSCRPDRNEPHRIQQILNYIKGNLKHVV

[6] = system: MV4-11; test: Induction of apoptosis in human MV4-11 cells assessed as late apoptotic cells at 2 uM incubated for 18 hrs by annexin V FITC and PI based flow cytometry (reference value: 9.2 to 9.63 %); assay type: functional
[7] = biological target: Histone deacetylase 5 (Homo sapiens, UniProt Q9UQL6); test: Inhibition of recombinant full length human HDAC5 expressed in baculovirus infected Sf9 cells using FAM-RHKK-TFAc as substrate incubated for 3 hrs by electrophoretic mobility shift assay
[8] = biological target: T3, Protein deacetylase HDAC6 (Homo sapiens, UniProt Q9UBN7); test: Inhibition of recombinant full length human HDAC6 expressed in baculovirus infected Sf9 cells assessed as inhibitory constant using FAM-RHKK-Ac as substrate incubated for 5 hrs by electrophoretic mobility shift assay
T3 sequence (Q9UBN7 whole entry): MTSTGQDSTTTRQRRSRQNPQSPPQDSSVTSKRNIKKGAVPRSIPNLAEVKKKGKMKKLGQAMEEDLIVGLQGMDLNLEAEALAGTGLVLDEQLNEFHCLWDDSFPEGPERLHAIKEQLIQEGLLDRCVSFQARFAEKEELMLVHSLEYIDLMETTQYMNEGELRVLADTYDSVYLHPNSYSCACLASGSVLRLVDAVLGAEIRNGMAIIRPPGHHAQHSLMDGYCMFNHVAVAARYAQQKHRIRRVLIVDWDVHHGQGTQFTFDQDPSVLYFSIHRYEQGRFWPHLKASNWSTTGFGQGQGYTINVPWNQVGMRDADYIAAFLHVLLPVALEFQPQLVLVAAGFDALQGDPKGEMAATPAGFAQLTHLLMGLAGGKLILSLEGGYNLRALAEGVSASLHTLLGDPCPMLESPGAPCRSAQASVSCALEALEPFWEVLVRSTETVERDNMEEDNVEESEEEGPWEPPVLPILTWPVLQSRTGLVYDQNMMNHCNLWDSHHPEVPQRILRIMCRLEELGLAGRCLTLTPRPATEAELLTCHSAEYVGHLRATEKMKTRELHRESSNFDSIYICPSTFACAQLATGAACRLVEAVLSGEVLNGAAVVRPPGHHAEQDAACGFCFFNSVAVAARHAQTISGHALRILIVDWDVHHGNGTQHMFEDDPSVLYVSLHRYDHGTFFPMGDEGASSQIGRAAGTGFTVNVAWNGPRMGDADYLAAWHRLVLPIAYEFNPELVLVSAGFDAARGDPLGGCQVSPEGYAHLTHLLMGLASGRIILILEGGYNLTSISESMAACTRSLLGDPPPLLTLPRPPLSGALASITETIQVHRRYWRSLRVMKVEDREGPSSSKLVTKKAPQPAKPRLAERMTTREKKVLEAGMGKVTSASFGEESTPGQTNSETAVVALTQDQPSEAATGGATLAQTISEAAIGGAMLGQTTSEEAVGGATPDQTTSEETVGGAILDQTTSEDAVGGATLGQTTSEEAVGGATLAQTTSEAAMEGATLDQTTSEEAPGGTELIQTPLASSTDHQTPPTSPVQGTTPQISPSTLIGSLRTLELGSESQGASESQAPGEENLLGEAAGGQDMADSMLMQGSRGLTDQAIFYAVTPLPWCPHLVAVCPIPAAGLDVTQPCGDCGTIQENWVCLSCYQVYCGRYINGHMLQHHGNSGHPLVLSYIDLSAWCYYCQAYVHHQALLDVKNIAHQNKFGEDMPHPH

[9] = system: MV4-11; test: Induction of apoptosis in human MV4-11 cells assessed as late apoptotic cells at 4 uM incubated for 18 hrs by annexin V FITC and PI based flow cytometry (reference value: 9.2 to 9.63 %); assay type: functional
[10] = system: MDA-MB-231; test: Cytotoxicity against human MDA-MB-231 cells assessed as reduction in cell viability incubated for 72 hrs by cell-titer blue assay; assay type: functional, cell-based; conditions: MDA-MB-231, 72 h
[11] = biological target: T4, Protein deacetylase HDAC6 (Homo sapiens) (UniProt Q9UBN7); test: (§1) Inhibition of HDAC6 in human HeLa cells incubated for 15 mins by ELISA; assay type: cell-based
T4 sequence (whole entry): T3 sequence (Q9UBN7 whole entry)

[12] = biological target: T3, Protein deacetylase HDAC6; test: as §1; assay type: cell-based
[13] = Oral bioavailability in CD-1 mouse at 20 mg/kg measured upto 24 hrs by LC/MS/MS analysis; assay type: ADME, organism-based; conditions: in vivo
[14] = system: MV4-11; test: Induction of apoptosis in human MV4-11 cells assessed as viable cells at 1 uM incubated for 18 hrs by annexin V FITC and PI based flow cytometry (reference value: 53.01 to 53.07 %); assay type: functional; conditions: Homo sapiens, MV4-11, 18 h; read-out: Activity

Sequence of Histone deacetylase 3 (O15379 whole entry): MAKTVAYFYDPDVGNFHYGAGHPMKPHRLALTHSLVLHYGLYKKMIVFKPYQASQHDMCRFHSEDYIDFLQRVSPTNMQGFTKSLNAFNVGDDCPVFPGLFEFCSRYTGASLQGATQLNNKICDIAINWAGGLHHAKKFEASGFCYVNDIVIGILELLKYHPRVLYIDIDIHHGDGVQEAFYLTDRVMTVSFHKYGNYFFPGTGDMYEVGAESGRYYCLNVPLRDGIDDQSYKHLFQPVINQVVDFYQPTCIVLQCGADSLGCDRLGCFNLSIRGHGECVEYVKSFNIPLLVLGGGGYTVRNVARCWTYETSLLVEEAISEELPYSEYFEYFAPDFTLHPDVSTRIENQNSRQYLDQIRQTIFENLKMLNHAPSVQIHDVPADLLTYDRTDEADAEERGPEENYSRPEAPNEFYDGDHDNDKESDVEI
Sequence of Histone deacetylase 5 (Q9UQL6 whole entry): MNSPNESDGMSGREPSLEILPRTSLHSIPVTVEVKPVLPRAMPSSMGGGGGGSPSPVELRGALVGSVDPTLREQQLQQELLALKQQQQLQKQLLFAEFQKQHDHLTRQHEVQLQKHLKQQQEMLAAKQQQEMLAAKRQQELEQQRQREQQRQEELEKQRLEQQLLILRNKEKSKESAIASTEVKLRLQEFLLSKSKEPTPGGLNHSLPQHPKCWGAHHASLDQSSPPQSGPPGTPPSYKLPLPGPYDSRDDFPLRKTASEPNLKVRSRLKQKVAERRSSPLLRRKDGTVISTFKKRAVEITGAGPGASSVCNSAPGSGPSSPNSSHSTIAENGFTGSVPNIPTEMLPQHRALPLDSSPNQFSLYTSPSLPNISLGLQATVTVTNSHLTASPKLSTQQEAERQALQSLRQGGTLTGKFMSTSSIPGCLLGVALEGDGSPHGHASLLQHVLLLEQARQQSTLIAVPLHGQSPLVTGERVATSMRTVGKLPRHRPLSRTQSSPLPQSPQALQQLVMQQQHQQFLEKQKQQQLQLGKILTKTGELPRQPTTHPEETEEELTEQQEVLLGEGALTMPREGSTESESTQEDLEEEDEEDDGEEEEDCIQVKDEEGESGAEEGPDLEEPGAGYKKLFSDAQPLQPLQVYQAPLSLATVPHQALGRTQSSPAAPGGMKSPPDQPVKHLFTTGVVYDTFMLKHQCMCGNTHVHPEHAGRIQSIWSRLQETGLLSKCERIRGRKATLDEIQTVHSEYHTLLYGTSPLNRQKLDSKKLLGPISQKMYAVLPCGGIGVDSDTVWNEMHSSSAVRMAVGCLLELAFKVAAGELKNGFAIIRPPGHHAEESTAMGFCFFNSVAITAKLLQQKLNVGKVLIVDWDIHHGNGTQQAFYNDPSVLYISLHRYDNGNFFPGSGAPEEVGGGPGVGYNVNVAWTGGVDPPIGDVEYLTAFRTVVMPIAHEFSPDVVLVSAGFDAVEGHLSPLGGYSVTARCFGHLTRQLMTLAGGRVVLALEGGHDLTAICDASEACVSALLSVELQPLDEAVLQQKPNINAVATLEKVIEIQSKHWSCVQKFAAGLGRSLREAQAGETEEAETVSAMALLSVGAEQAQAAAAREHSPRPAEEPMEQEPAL

IC50 [1]: 0.187 µM | t1/2 [2]: 28.3 min | IC50 [3]: > 1 µM | IC50 [5]: 0.245 µM | IC50 [7]: > 1 µM | Ki [8]: 0.035 µM | inhibition [11]: Dose-dependent effect | IC50 [12]: 0.58 µM | bioavailability [13]: 19.8%
Compound: CC(C)(C)c1ccc(C(=O)Nc2ccc(C(=O)NO)cc2)cc1
Activity [4]: 20.69% | Activity [6]: 30.97% | Activity [9]: 38.48% | IC50 [10]: > 25 µM | viability at 1 µM [14]: 40.9%
